Patent publication US20060281791A1, “Methods of increasing proliferation of adult mammalian cardiomyocytes through p38 map kinase inhibition” (CHILDREN'S MEDICAL CENTER CORPORATION, priority 2005, published 2006)
Where “and” joins values, the source holds several entries; their conditions need not be identical. Equal entries are not always repeated.

System: neonatal rat cardiomyocytes
Experiment: cDNA microarray analysis (Affymetrix Rat Expression Set 230), x-fold changes of clustered genes
Format: cell-based
Conditions: 72 h, experiments (1) and (2)
Experimental: Animal experiments were performed in accordance with guidelines of Children's Hospital, Boston and UCLA. Ventricular cardiomyocytes from fetal (E19), 2-day-old (P2) and adult (250-350 g) Wistar rats (Charles River) were isolated as described with minor modifications (Engel et al. 1999; Engel et al. 2003). After digestion of fetal or neonatal hearts (0.14 mg/ml collagenase II (Invitrogen), 0.55 mg/ml pancreatin (Sigma)) cells were cultured in DMEM/F12 (GIBCO) containing 3 mM Na-pyruvate, 0.2% BSA, 0.1 mM ascorbic acid (Sigma), 0.5% Insulin-Transferrin-Selenium (100×), penicillin (100 U/ml), streptomycin (100 μg/ml), and 2 mM L-glutamine (GIBCO). Adult cardiomyocytes were cultured for 1 day in standard medium (DMEM, 25 mM Hepes, 5 mM taurine, 5 mM creatine, 2 mM L-carnitine (Sigma), 20 U/ml insulin (GIBCO), 0.2% BSA, penicillin (100 U/ml), and streptomycin (100 μg/ml)). Cells were stimulated in culture medium without BSA containing 2 mM L-glutamine. Neonatal and adult cardiomyocytes were initially cultured for 48 h in the presence of 20 μM cytosine β-D-arabinofuranoside (araC, Sigma) and 5% horse serum before stimulation to prevent proliferation of non-myocytes. Adult cardiomyocytes were incubated another 3 days with araC during stimulation. Neonatal cardiomyocytes were stimulated every day with growth factors for BrdU and H3P analyses (FGF1 and NRG-1-1β at 50 ng/ml, IL-1β at 100 ng/ml, R&D Systems, all diluted in 0.1% BSA/PBS). SB203580 and LY294002 (Calbiochem) was added every day. Adult cardiomyocytes were stimulated with fresh medium and SB203580 every 3 days.
RNA of neonatal cardiomyocytes was prepared 72 h after stimulation using Trizol (Invitrogen). RT-PCR was performed following standard protocols (Supplemental Table S4). Affymetrix technology was applied using the Rat Expression Set 230.
To determine the effect of p38 inhibition on cardiomyocyte differentiation and proliferation, a specific inhibitor of p38α and p38β, SB203580, was used and evaluated using cDNA microarray analyses using neonatal rat cardiomyocytes. […] Expression changes of a subset of genes were validated by RT-PCR.
Stimulation of neonatal cardiomyocytes with FGF1 induces fetal gene expression. To determine if FGF1, in combination with p38 inhibition, can reverse differentiation and induce cell cycle re-entry, we repeated cDNA microarray analyses (Supplemental Table S1). […]

With FGF1: growth factor FGF1 (R&D Systems) the “Actn1 expression, x-fold change” value was 1.9 x-fold, the “CXC chemokine LIX expression, x-fold change” value was 0.4 x-fold and the “Cdc42 effector protein expression, x-fold change” value was 0.8 x-fold. The “Cfl1 expression, x-fold change” value was 0.6 x-fold, the “Connexin 40 expression, x-fold change” value was 0.8 x-fold and the “Edg2 expression, x-fold change” value was 0.4 x-fold. The “Enigma expression, x-fold change” value was 2.3 x-fold, the “Epha3 expression, x-fold change” value was 0.5 x-fold and the “Epidermal growth factor-like protein, T16 precursor expression, x-fold change” value was 0.3 x-fold. For the same substance, the “Fgf16 expression, x-fold change” value was 0.8 x-fold, the “Figf expression, x-fold change” value was 0.3 x-fold and the “Kruppel-like factor 4 expression, x-fold change” value was 1.1 x-fold. The “Lgals5 expression, x-fold change” value was 2.9 x-fold, the “Maf-2 expression, x-fold change” value was 0.5 x-fold and the “Mtss1 expression, x-fold change” value was 0.5 x-fold. The “Nr2f2/COUP-TFII expression, x-fold change” value was 0.8 x-fold, the “Nudt4 expression, x-fold change” value was 0.8 x-fold and the “Osteoglycin expression, x-fold change” value was 0.4 x-fold. For the same substance, the “Osterix expression, x-fold change” value was 0.6 x-fold, the “PTTG1 expression, x-fold change” value was 1.4 x-fold and the “Protein tyrosine phosphatase, receptor type, D (Ptprd) expression, x-fold change” value was 0.5 x-fold. The “RPTPK expression, x-fold change” value was 0.4 x-fold, the “Rbp2 expression, x-fold change” value was 0.6 x-fold and the “Rdc1 expression, x-fold change” value was 0.5 x-fold. The “Rev-ErbA-beta expression, x-fold change” value was 0.7 x-fold, the “RhoGAP expression, x-fold change” value was 0.8 x-fold and the “Septin 6 expression, x-fold change” value was 1.9 x-fold. For the same substance, the “Serine-threonine specific protein phosphatase, GL subunit expression, x-fold change” value was 0.7 x-fold, the “Seta expression, x-fold change” value was 1.0 x-fold and the “TRAF4 associated factor 1 expression, x-fold change” value was 1.9 x-fold. The “Troponin I, slow isoform expression, x-fold change” value was 0.6 x-fold, the “Vcam1 expression, x-fold change” value was 0.3 x-fold and the “Wisp2 expression, x-fold change” value was 0.8 x-fold. For the same substance, the “(BEM)-3 expression, x-fold change” value (listed as FGF) was 1.4 x-fold and 1.6 x-fold, the “AGTR1 expression, x-fold change” value (listed as FGF) was 0.4 x-fold and 0.5 x-fold and the “Acta1 expression, x-fold change” value (listed as FGF) was 4.8 x-fold and 6.3 x-fold. The “Actinin expression, x-fold change” value (listed as FGF) was 1.8 x-fold and 1.5 x-fold, the “Adrenergic, alpha 1B-, receptor expression, x-fold change” value (listed as FGF) was 0.8 x-fold and 0.7 x-fold and the “Adrenomedullin precursor expression, x-fold change” value (listed as FGF) was 0.4 x-fold and 0.6 x-fold. For the same substance, the “Agtr1a expression, x-fold change” value (listed as FGF) was 0.6 x-fold and 0.4 x-fold, the “Anillin expression, x-fold change” value (listed as FGF) was 3.3 x-fold and 1.9 x-fold and the “Ankyrin 2, neuronal expression, x-fold change” value (listed as FGF) was 0.6 x-fold and 0.7 x-fold. For the same substance, the “Ankyrin repeat domain-containing SOCS box protein 12 expression, x-fold change” value (listed as FGF) was 0.5 x-fold and 0.6 x-fold, the “Apoptosis protein MA-3 expression, x-fold change” value (listed as FGF) was 0.8 x-fold and 0.7 x-fold and the “Arrestin domain containing 3 expression, x-fold change” value (listed as FGF) was 0.3 x-fold and 0.5 x-fold. The “Aurora B expression, x-fold change” value (listed as FGF) was 1.5 x-fold and 1.9 x-fold, the “BMP2 expression, x-fold change” value (listed as FGF) was 6.0 x-fold and 3.4 x-fold and the “BMP6 precursor expression, x-fold change” value (listed as FGF) was 1.4 x-fold and 1.7 x-fold. For the same substance, the “BOC expression, x-fold change” value (listed as FGF) was 0.5 x-fold and 0.6 x-fold, the “Bcl2a1 expression, x-fold change” value (listed as FGF) was 0.4 x-fold and 0.6 x-fold and the “Bmp3 expression, x-fold change” value (listed as FGF) was 0.5 x-fold and 0.6 x-fold. For the same substance, the “Bub1 expression, x-fold change” value (listed as FGF) was 1.4 x-fold and 1.2 x-fold, the “CABC1 expression, x-fold change” value (listed as FGF) was 0.6 x-fold and 0.5 x-fold and the “CDKN3/KAP/CDI1 expression, x-fold change” value (listed as FGF) was 1.7 x-fold and 2.0 x-fold. The “CENP-E expression, x-fold change” value (listed as FGF) was 1.3 x-fold and 1.7 x-fold, the “CISH expression, x-fold change” value (listed as FGF) was 0.4 x-fold and 0.5 x-fold and the “CKS2 expression, x-fold change” value (listed as FGF) was 1.7 x-fold and 1.4 x-fold. For the same substance, the “CREB5 expression, x-fold change” value (listed as FGF) was 1.3 x-fold and 1.8 x-fold, the “CSRP1 expression, x-fold change” value (listed as FGF) was 1.9 x-fold and 1.8 x-fold and the “CXCL4 expression, x-fold change” value (listed as FGF) was 0.7 x-fold and 0.6 x-fold. The “Cacalmodulin-dependent protein kinase phosphatase expression, x-fold change” value (listed as FGF) was 0.9 x-fold and 1.3 x-fold, the “Cadherin 13 expression, x-fold change” value (listed as FGF) was 1.5 x-fold and 1.9 x-fold and the “Calponin 1 expression, x-fold change” value (listed as FGF) was 6.4 x-fold and 4.9 x-fold. For the same substance, the “Casein kinase I delta expression, x-fold change” value (listed as FGF) was 1.3 x-fold and 0.9 x-fold, the “Catenin, alpha-1 expression, x-fold change” value (listed as FGF) was 1.6 x-fold and 1.5 x-fold and the “Cdc2a expression, x-fold change” value (listed as FGF) was 1.7 x-fold and 1.8 x-fold. The “Cdc20 expression, x-fold change” value (listed as FGF) was 1.9 x-fold and 1.7 x-fold, the “Cdc25B expression, x-fold change” value (listed as FGF) was 1.6 x-fold and 1.3 x-fold and the “Cdca3 expression, x-fold change” value (listed as FGF) was 1.3 x-fold and 1.4 x-fold. For the same substance, the “Cish2 expression, x-fold change” value (listed as FGF) was 0.6 x-fold and 0.8 x-fold, the “Cish3 expression, x-fold change” value (listed as FGF) was 0.8 x-fold and 0.9 x-fold and the “Cish expression, x-fold change” value (listed as FGF) was 0.4 x-fold and 0.5 x-fold. For the same substance, the “Connexin 43 expression, x-fold change” value (listed as FGF) was 0.9 x-fold and 0.8 x-fold, the “Csrp3/MLP expression, x-fold change” value (listed as FGF) was 2.7 x-fold and 4.2 x-fold and the “Ctgf expression, x-fold change” value (listed as FGF) was 1.9 x-fold and 1.6 x-fold. For the same substance, the “Cxcl12 expression, x-fold change” value (listed as FGF) was 0.5 x-fold and 0.3 x-fold, the “Cyclin A2 expression, x-fold change” value (listed as FGF) was 1.8 x-fold and 1.1 x-fold and the “Cyclin B1 expression, x-fold change” value (listed as FGF) was 1.2 x-fold and 1.0 x-fold. The “Cyclin B expression, x-fold change” value (listed as FGF) was 1.9 x-fold and 1.8 x-fold, the “Cyclin D1 expression, x-fold change” value (listed as FGF) was 4.2 x-fold and 3.3 x-fold and the “DAPK1 expression, x-fold change” value (listed as FGF) was 0.6 x-fold and 0.5 x-fold. For the same substance, the “DUSP6 expression, x-fold change” value (listed as FGF) was 2.8 x-fold and 4.4 x-fold, the “Ddr2 expression, x-fold change” value (listed as FGF) was 0.5 x-fold and 0.8 x-fold and the “Desmin expression, x-fold change” value (listed as FGF) was 2.2 x-fold and 1.8 x-fold. The “Diaphanous homolog 3 expression, x-fold change” value (listed as FGF) was 2.5 x-fold and 1.9 x-fold, the “Dok-5 expression, x-fold change” value (listed as FGF) was 2.7 x-fold and 2.6 x-fold and the “Dri42 expression, x-fold change” value (listed as FGF) was 0.5 x-fold and 0.3 x-fold. For the same substance, the “ETV5/ERM/PEA3 expression, x-fold change” value (listed as FGF) was 20.4 x-fold and 11.2 x-fold, the “Ect2 expression, x-fold change” value (listed as FGF) was 1.9 x-fold and 2.5 x-fold and the “Egfl3 expression, x-fold change” value (listed as FGF) was 0.4 x-fold and 0.5 x-fold. The “Emr1 expression, x-fold change” value (listed as FGF) was 0.6 x-fold and 0.4 x-fold, the “EphA2 expression, x-fold change” value (listed as FGF) was 2.2 x-fold and 1.7 x-fold and the “Ephrin B3 expression, x-fold change” value (listed as FGF) was 0.7 x-fold and 0.8 x-fold. The “FCEG expression, x-fold change” value (listed as FGF) was 0.7 x-fold and 0.5 x-fold, the “FHL1 expression, x-fold change” value (listed as FGF) was 7.3 x-fold and 5.1 x-fold and the “FHOS2 expression, x-fold change” value (listed as FGF) was 0.7 x-fold and 0.8 x-fold. The “Fancd2 expression, x-fold change” value (listed as FGF) was 0.7 x-fold and 1.1 x-fold, the “Fbln5 expression, x-fold change” value (listed as FGF) was 0.4 x-fold and 0.6 x-fold and the “Fcgr2 expression, x-fold change” value (listed as FGF) was 0.5 x-fold and 0.6 x-fold. For the same substance, the “Fcgr3 expression, x-fold change” value (listed as FGF) was 0.5 x-fold and 0.6 x-fold, the “Flt4/VEGFR3 expression, x-fold change” value (listed as FGF) was 1.8 x-fold and 2.5 x-fold and the “Frizzled-related protein 2 expression, x-fold change” value (listed as FGF) was 0.5 x-fold and 0.3 x-fold. The “Fzd1 expression, x-fold change” value (listed as FGF) was 0.7 x-fold and 0.8 x-fold, the “G0S2-like protein expression, x-fold change” value (listed as FGF) was 0.5 x-fold and 0.6 x-fold and the “GADD45a expression, x-fold change” value (listed as FGF) was 1.8 x-fold and 1.3 x-fold. For the same substance, the “GADD45 gamma expression, x-fold change” value (listed as FGF) was 3.0 x-fold and 2.9 x-fold, the “GDF15 expression, x-fold change” value (listed as FGF) was 1.6 x-fold and 2.6 x-fold and the “GOA1B expression, x-fold change” value (listed as FGF) was 2.9 x-fold and 3.0 x-fold. The “Gab1 expression, x-fold change” value (listed as FGF) was 0.6 x-fold and 0.7 x-fold, the “Ghr expression, x-fold change” value (listed as FGF) was 0.9 x-fold and 0.8 x-fold and the “Glypican (GPC)-3 expression, x-fold change” value (listed as FGF) was 0.4 x-fold and 0.5 x-fold. The “Growth hormone receptor expression, x-fold change” value (listed as FGF) was 0.7 x-fold and 0.8 x-fold.
